Consider 21 compounds from BindingDB's records for doi:10.1021/jm7012858 (Wyeth Research, 2008).

Bounds are passed on as bounds.

The target of one test is Phosphatidylinositol 3-kinase regulatory subunit alpha/4,5-bisphosphate 3-kinase catalytic subunit alpha isoform (Homo sapiens, UniProt P42336). Briefly: PI3K Inhibition Assay.
Chain of Phosphatidylinositol 3-kinase regulatory subunit alpha/4,5-bisphosphate 3-kinase catalytic subunit alpha isoform (P27986 whole entry, canonical isoform): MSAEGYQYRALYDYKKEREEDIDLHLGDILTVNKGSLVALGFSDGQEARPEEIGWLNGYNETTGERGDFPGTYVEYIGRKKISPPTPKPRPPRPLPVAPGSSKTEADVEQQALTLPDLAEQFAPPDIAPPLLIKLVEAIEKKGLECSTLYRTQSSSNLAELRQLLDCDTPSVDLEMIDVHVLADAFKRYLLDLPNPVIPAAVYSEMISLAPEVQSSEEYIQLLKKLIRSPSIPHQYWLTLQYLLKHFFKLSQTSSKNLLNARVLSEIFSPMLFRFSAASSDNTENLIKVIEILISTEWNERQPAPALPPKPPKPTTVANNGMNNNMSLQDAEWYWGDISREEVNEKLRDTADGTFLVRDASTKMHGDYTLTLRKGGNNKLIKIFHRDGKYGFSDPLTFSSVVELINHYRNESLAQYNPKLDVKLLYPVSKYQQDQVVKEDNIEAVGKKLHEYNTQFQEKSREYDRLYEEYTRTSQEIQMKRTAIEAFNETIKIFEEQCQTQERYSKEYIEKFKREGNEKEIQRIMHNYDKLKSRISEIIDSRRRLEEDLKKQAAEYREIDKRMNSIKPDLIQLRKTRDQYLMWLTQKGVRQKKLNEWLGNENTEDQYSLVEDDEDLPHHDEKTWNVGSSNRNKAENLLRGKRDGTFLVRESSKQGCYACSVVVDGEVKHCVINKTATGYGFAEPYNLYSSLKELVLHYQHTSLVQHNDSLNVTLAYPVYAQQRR
Chain of Phosphatidylinositol 3-kinase regulatory subunit alpha/4,5-bisphosphate 3-kinase catalytic subunit alpha isoform (P42336 whole entry, canonical isoform): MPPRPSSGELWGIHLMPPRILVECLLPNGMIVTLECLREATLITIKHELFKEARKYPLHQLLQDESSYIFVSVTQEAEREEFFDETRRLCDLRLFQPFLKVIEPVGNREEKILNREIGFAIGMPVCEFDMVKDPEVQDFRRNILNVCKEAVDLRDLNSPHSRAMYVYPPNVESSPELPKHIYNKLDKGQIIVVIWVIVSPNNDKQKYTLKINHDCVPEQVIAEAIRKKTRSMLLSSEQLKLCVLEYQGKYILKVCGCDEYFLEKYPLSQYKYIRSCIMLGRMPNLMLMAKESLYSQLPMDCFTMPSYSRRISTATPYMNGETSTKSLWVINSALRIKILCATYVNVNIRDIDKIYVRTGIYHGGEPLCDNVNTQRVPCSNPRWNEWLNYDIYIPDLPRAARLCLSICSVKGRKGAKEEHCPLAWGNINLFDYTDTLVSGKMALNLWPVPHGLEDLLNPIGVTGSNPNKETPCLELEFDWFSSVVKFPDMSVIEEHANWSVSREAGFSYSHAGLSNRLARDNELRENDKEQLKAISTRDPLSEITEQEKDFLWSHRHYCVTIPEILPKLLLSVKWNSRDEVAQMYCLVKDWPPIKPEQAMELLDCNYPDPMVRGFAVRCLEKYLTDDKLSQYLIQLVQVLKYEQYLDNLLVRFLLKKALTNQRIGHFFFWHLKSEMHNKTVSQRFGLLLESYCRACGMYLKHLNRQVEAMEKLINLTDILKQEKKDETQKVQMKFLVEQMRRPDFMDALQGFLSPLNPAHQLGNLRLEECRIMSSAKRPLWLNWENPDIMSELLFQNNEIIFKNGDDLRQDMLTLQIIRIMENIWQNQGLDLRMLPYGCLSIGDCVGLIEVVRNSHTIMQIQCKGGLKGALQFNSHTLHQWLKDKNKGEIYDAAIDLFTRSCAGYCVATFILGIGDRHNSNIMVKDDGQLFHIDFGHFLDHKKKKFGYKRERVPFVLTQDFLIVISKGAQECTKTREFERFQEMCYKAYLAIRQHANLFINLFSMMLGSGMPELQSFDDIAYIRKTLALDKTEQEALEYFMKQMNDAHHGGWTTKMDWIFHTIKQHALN
Conditions: not given
As to the method:
Inhibition of PI3K enzyme activity is measured in a microtiter plate-based fluorescence polarization (FP) assay.
As for `COC[C@H]1OC(=O)C(=CN2CCN(C3CCN(C)CC3)CC2)C2C(=O)C(=O)C3=C([C@H](OC(C)=O)C[C@@]4(C)C3CC[C@@H]4O)[C@]21C` (stereo partly drawn) [(2R,3S,6E,14S,15S,17R)-8,14-dihydroxy-3-(methoxymethyl)-2,15-dimethyl-6-{[4-(1-methylpiperidin-4-yl)piperazin-1-yl]methylidene}-5,9-dioxo-4-oxatetracyclo[8.7.0.0^{2,7}.0^{11,15}]heptadeca-1(10),7-dien-17-yl acetate], the IC50 (commonly the point on the concentration scale where inhibition reaches its midpoint) was 91 nM.

`CCN(C=C1C(=O)O[C@H](COC)[C@]2(C)C3=C(C(=O)C(=O)C12)C1CC[C@H](O)[C@@]1(C)C[C@H]3OC(C)=O)CCN(C)C` (stereo partly drawn) [(2R,3S,6E,14S,15S,17R)-6-({[2-(dimethylamino)ethyl](ethyl)amino}methylidene)-8,14-dihydroxy-3-(methoxymethyl)-2,15-dimethyl-5,9-dioxo-4-oxatetracyclo[8.7.0.0^{2,7}.0^{11,15}]heptadeca-1(10),7-dien-17-yl acetate]: 5 nM corresponded to half-maximal inhibition (IC50).

The compound `COC[C@H]1OC(=O)C(=CN2CCCCC2)C2C(=O)C(=O)C3=C([C@H](OC(C)=O)C[C@@]4(C)C3CC[C@@H]4O)[C@]21C` (stereo partly drawn) [(2R,3S,6E,14S,15S,17R)-8,14-dihydroxy-3-(methoxymethyl)-2,15-dimethyl-5,9-dioxo-6-(piperidin-1-ylmethylidene)-4-oxatetracyclo[8.7.0.0^{2,7}.0^{11,15}]heptadeca-1(10),7-dien-17-yl acetate] registered an IC50 of 104 nM.

In the case of `COC[C@H]1OC(=O)C(=CN2CCN(CCCN(C)C)CC2)C2C(=O)C(=O)C3=C([C@H](OC(C)=O)C[C@@]4(C)C3CC[C@@H]4O)[C@]21C` (stereo partly drawn) [(2R,3S,6E,14S,15S,17R)-6-({4-[3-(dimethylamino)propyl]piperazin-1-yl}methylidene)-8,14-dihydroxy-3-(methoxymethyl)-2,15-dimethyl-5,9-dioxo-4-oxatetracyclo[8.7.0.0^{2,7}.0^{11,15}]heptadeca-1(10),7-dien-17-yl acetate], the IC50 was 38 nM. This IC50 is about 2.7-fold lower than that of the compound before.

On to `COC[C@H]1OC(=O)C(=CN2CCN(c3ccccc3)CC2)C2C(=O)C(=O)C3=C([C@H](OC(C)=O)C[C@@]4(C)C3CC[C@@H]4O)[C@]21C` (stereo partly drawn) [(2R,3S,6E,14S,15S,17R)-8,14-dihydroxy-3-(methoxymethyl)-2,15-dimethyl-5,9-dioxo-6-[(4-phenylpiperazin-1-yl)methylidene]-4-oxatetracyclo[8.7.0.0^{2,7}.0^{11,15}]heptadeca-1(10),7-dien-17-yl acetate], for which 56 nM corresponded to half-maximal inhibition (IC50).

Take `COC[C@H]1OC(=O)C(=CN(CCO)CCO)C2C(=O)C(=O)C3=C([C@H](OC(C)=O)C[C@@]4(C)C3CC[C@@H]4O)[C@]21C` (stereo partly drawn) [(2R,3S,6E,14S,15S,17R)-6-{[bis(2-hydroxyethyl)amino]methylidene}-8,14-dihydroxy-3-(methoxymethyl)-2,15-dimethyl-5,9-dioxo-4-oxatetracyclo[8.7.0.0^{2,7}.0^{11,15}]heptadeca-1(10),7-dien-17-yl acetate]: inhibition was half-maximal at 918 nM (IC50).

`CCN(CC)CCN(C)C=C1C(=O)O[C@H](COC)[C@]2(C)C3=C(C(=O)C(=O)C12)C1CC[C@H](O)[C@@]1(C)C[C@H]3OC(C)=O` (stereo partly drawn) [(2R,3S,6E,14S,15S,17R)-6-({[2-(diethylamino)ethyl](methyl)amino}methylidene)-8,14-dihydroxy-3-(methoxymethyl)-2,15-dimethyl-5,9-dioxo-4-oxatetracyclo[8.7.0.0^{2,7}.0^{11,15}]heptadeca-1(10),7-dien-17-yl acetate] returned an IC50 of 50 nM.

With `COC[C@H]1OC(=O)C(=CN2CCN(C)CC2)C2C(=O)C(=O)C3=C([C@H](OC(C)=O)C[C@@]4(C)C3CC[C@@H]4O)[C@]21C` (stereo partly drawn) [(2R,3S,6E,14S,15S,17R)-8,14-dihydroxy-3-(methoxymethyl)-2,15-dimethyl-6-[(4-methylpiperazin-1-yl)methylidene]-5,9-dioxo-4-oxatetracyclo[8.7.0.0^{2,7}.0^{11,15}]heptadeca-1(10),7-dien-17-yl acetate], the 50% inhibitory concentration (IC50) is 90 nM. Against the preceding compound, the IC50 is about 1.8-fold higher.

As for `CCN(C=C1C(=O)O[C@H](COC)[C@]2(C)C3=C(C(=O)C(=O)C12)C1CC[C@H](O)[C@@]1(C)C[C@H]3OC(C)=O)CCCN(C)C` (stereo partly drawn) [(2R,3S,6E,14S,15S,17R)-6-({[3-(dimethylamino)propyl](ethyl)amino}methylidene)-8,14-dihydroxy-3-(methoxymethyl)-2,15-dimethyl-5,9-dioxo-4-oxatetracyclo[8.7.0.0^{2,7}.0^{11,15}]heptadeca-1(10),7-dien-17-yl acetate], it took 12 nM to reach half-maximal inhibition (IC50). This IC50 is about 7.5-fold lower than that of the compound before.

Regarding `COC[C@H]1OC(=O)C(=CN(C)CCCC(=O)O)C2C(=O)C(=O)C3=C([C@H](OC(C)=O)C[C@@]4(C)C3CC[C@@H]4O)[C@]21C` (stereo partly drawn) [4-({[(2R,3S,6E,14S,15S,17R)-17-(acetyloxy)-8,14-dihydroxy-3-(methoxymethyl)-2,15-dimethyl-5,9-dioxo-4-oxatetracyclo[8.7.0.0^{2,7}.0^{11,15}]heptadeca-1(10),7-dien-6-ylidene]methyl}(methyl)amino)butanoic acid], the midpoint of inhibition, the IC50, lay at 193 nM.

In turn, `CCN(C=C1C(=O)O[C@H](COC)[C@]2(C)C3=C(C(=O)C(=O)C12)C1CC[C@H](O)[C@@]1(C)C[C@H]3OC(C)=O)CCN(CC)CC` (stereo partly drawn) [(2R,3S,6E,14S,15S,17R)-6-({[2-(diethylamino)ethyl](ethyl)amino}methylidene)-8,14-dihydroxy-3-(methoxymethyl)-2,15-dimethyl-5,9-dioxo-4-oxatetracyclo[8.7.0.0^{2,7}.0^{11,15}]heptadeca-1(10),7-dien-17-yl acetate] returned a half-inhibitory concentration (IC50) of 24 nM.

Compound `COC[C@H]1OC(=O)C(=CN2CCC(C(=O)OC)CC2)C2C(=O)C(=O)C3=C([C@H](OC(C)=O)C[C@@]4(C)C3CC[C@@H]4O)[C@]21C` (stereo partly drawn) [methyl 1-{[(2R,3S,6E,14S,15S,17R)-17-(acetyloxy)-8,14-dihydroxy-3-(methoxymethyl)-2,15-dimethyl-5,9-dioxo-4-oxatetracyclo[8.7.0.0^{2,7}.0^{11,15}]heptadeca-1(10),7-dien-6-ylidene]methyl}piperidine-4-carboxylate] registered an IC50 of 31 nM.

`COC[C@H]1OC(=O)C(=CN2CCN(Cc3ccccc3)CC2)C2C(=O)C(=O)C3=C([C@H](OC(C)=O)C[C@@]4(C)C3CC[C@@H]4O)[C@]21C` (stereo partly drawn) [(2R,3S,6E,14S,15S,17R)-6-[(4-benzylpiperazin-1-yl)methylidene]-8,14-dihydroxy-3-(methoxymethyl)-2,15-dimethyl-5,9-dioxo-4-oxatetracyclo[8.7.0.0^{2,7}.0^{11,15}]heptadeca-1(10),7-dien-17-yl acetate] registered an IC50 of 87 nM.

On to `COC[C@H]1OC(=O)C(=CN(C)CCN(C)C)C2C(=O)C(=O)C3=C([C@H](OC(C)=O)C[C@@]4(C)C3CC[C@@H]4O)[C@]21C` (stereo partly drawn) [(2R,3S,6E,14S,15S,17R)-6-({[2-(dimethylamino)ethyl](methyl)amino}methylidene)-8,14-dihydroxy-3-(methoxymethyl)-2,15-dimethyl-5,9-dioxo-4-oxatetracyclo[8.7.0.0^{2,7}.0^{11,15}]heptadeca-1(10),7-dien-17-yl acetate], for which inhibition was half-maximal at 8.4 nM (IC50).

For `COC[C@H]1OC(=O)C(=CN(C)CCCN2CCN(c3ccc(OC)cc3)CC2)C2C(=O)C(=O)C3=C([C@H](OC(C)=O)C[C@@]4(C)C3CC[C@@H]4O)[C@]21C` (stereo partly drawn) [(2R,3S,6E,14S,15S,17R)-8,14-dihydroxy-3-(methoxymethyl)-6-[({3-[4-(4-methoxyphenyl)piperazin-1-yl]propyl}(methyl)amino)methylidene]-2,15-dimethyl-5,9-dioxo-4-oxatetracyclo[8.7.0.0^{2,7}.0^{11,15}]heptadeca-1(10),7-dien-17-yl acetate], 15 nM corresponded to half-maximal inhibition (IC50). Against the preceding compound, the IC50 is about 1.8-fold higher.

The test is the same for the next values; noted with them: pH 7.5; 22 °C.
The compound `CCN(C=C1C(=O)O[C@H](COC)[C@]2(C)C3=C(C(=O)C(=O)C12)C1CC[C@H](O)[C@@]1(C)C[C@H]3OC(C)=O)CC` (stereo partly drawn) [(2R,3S,6Z,14S,15S,17R)-6-[(diethylamino)methylidene]-8,14-dihydroxy-3-(methoxymethyl)-2,15-dimethyl-5,9-dioxo-4-oxatetracyclo[8.7.0.0^{2,7}.0^{11,15}]heptadeca-1(10),7-dien-17-yl acetate] yielded a 50% inhibitory concentration (IC50) of 382 nM.

In turn, `C=CCN(C=C1C(=O)O[C@H](COC)[C@]2(C)C3=C(C(=O)C(=O)C12)C1CCC(=O)[C@@]1(C)C[C@H]3OC(C)=O)CC=C` (stereo partly specified) [PX-866] yielded a half-maximal inhibitory concentration (IC50) of 88 nM.

In turn, `CCNC=C1C(=O)O[C@H](COC)[C@]2(C)C3=C(C(=O)C(=O)C12)C1CC[C@H](O)[C@@]1(C)C[C@H]3OC(C)=O` (stereo partly drawn) [(2R,3S,6Z,14S,15S,17R)-6-[(ethylamino)methylidene]-8,14-dihydroxy-3-(methoxymethyl)-2,15-dimethyl-5,9-dioxo-4-oxatetracyclo[8.7.0.0^{2,7}.0^{11,15}]heptadeca-1(10),7-dien-17-yl acetate] displayed an IC50 greater than 10000 nM.

With `COC[C@H]1OC(=O)C(=CNCCCN(C)C)C2C(=O)C(=O)C3=C([C@H](OC(C)=O)C[C@@]4(C)C3CC[C@@H]4O)[C@]21C` (stereo partly drawn) [(2R,3S,6Z,14S,15S,17R)-6-({[3-(dimethylamino)propyl]amino}methylidene)-8,14-dihydroxy-3-(methoxymethyl)-2,15-dimethyl-5,9-dioxo-4-oxatetracyclo[8.7.0.0^{2,7}.0^{11,15}]heptadeca-1(10),7-dien-17-yl acetate], the IC50 is greater than 10000 nM.

`COC[C@H]1OC(=O)C(=CN(C)C(C)(C)C)C2C(=O)C(=O)C3=C([C@H](OC(C)=O)C[C@@]4(C)C3CC[C@@H]4O)[C@]21C` (stereo partly drawn) [(2R,3S,6Z,14S,15S,17R)-6-{[tert-butyl(methyl)amino]methylidene}-8,14-dihydroxy-3-(methoxymethyl)-2,15-dimethyl-5,9-dioxo-4-oxatetracyclo[8.7.0.0^{2,7}.0^{11,15}]heptadeca-1(10),7-dien-17-yl acetate]: the midpoint of inhibition, the IC50, lay at 440 nM.

In turn, `COC[C@H]1OC(=O)C(=CN(CCN(C)C)Cc2ccccc2)C2C(=O)C(=O)C3=C([C@H](OC(C)=O)C[C@@]4(C)C3CC[C@@H]4O)[C@]21C` (stereo partly drawn) [(2R,3S,6Z,14S,15S,17R)-6-({benzyl[2-(dimethylamino)ethyl]amino}methylidene)-8,14-dihydroxy-3-(methoxymethyl)-2,15-dimethyl-5,9-dioxo-4-oxatetracyclo[8.7.0.0^{2,7}.0^{11,15}]heptadeca-1(10),7-dien-17-yl acetate] gave an IC50 of 66 nM.
